Measurements: paper PMC4434909, “In vitro properties of designed antimicrobial peptides that exhibit potent antipneumococcal activity and produces synergism in combination with penicillin” (Scientific Reports, 2015)
Like-named read-outs stand apart in the source and are kept apart here. Where no end group is shown, it is not given here.

Columns and labels:
[1] = system: penicillin-resistant Streptococcus pneumoniae (PRSP); type: cell-based; details: for MIC, PRSP: MIC range over 20 PRSP isolates, CLSI broth microdilution, CAMHB with 5% laked horse blood, 18–24 hrs 37°C 5% CO2, peptides 1.96–250 μg/ml, three independent experiments; for EP %, PRSP: effective percentage: proportion of isolates inhibited within the MIC range
Source text: All bacterial strains were obtained from Department of Medical Microbiology, University of Malaya. Clinical isolates were previously obtained from University of Malaya Medical Centre and maintained in the laboratory. Sheep blood agar was used for pneumococcal cultivation purpose. Nutrient agar was used for cultivating E. coli ATCC 25922, S. aureus ATCC 25923, and P. aeruginosa ATCC 15442, Acinetobacter baumanii ATCC 15308, and one clinical isolate for each MRSA, E. cloacae, Citrobacter spp., and K. pneumoniae. For antimicrobial testing, Mueller-Hinton agar (MHA) and cationically-adjusted MHB (CAMHB) were prepared according to the Clinical and Laboratory Standard Institute guidelines. MHA for S. pneumoniae was supplemented with 5% (v/v) defibrinated sheep blood and 5% laked horse blood for CAMHB. All bacterial cultures were stored in multiple vials in brain heart infusion broth supplemented with 10% (v/v) glycerol at −80°C to avoid repeated freeze-thawed cycles on the cells. All freeze-stocked strains were passaged twice prior to experimentation.
Procedures were performed to determine the MIC of peptides according to the CLSI guidelines[21] against 60 pneumococcal isolates which consisted of 20 isolates each for PRSP, PISP, and PSSP. Strains were grown for 18–24 hrs at 37°C under 5% CO2. Direct suspension of the colonies were made in CAMHB and adjusted to OD625 0.08–0.1 which corresponds to 1 ~ 2 × 10^8 CFU/ml followed by serial ten-fold dilutions to give 1 × 10^6 CFU/ml. Fifty microliters of bacterial suspension was then aliquoted to 96-well round bottom microtiter plates containing equal volume of serially diluted peptides to give final concentrations of peptides encompassing the range of 1.96–250 μg/ml. […] The plates were incubated for 18–24 hrs at 37°C under 5% CO2. MIC was read as the concentration of peptide producing complete inhibition on the visible growth of the test organism. Results were pooled from three independent experiments. MIC range was defined as the range of concentrations where the peptides produce detectable antimicrobial activity. Effective percentage (EP) was the proportion of pneumococcal isolates inhibited within the MIC range. Since the isolates tested were obtained prior to 2008 where major revision in antibiotic susceptibility breakpoints were introduced, thus the pneumococci were defined according to the PEN susceptibility breakpoint (prior 2008) which corresponds to the PEN (oral penicillin V) breakpoint of the revised criteria.

A549 cell line = assay: Cytotoxicity against human cell lines (CellTiter 96 AQueous); type: cell-based
Procedure: (§1) Both the NL20 human lung bronchial normal epithelial cell line and the A549 human lung alveolar adenocarcinoma epithelial cell line were used for cell cytotoxicity tests. Besides investigating the cytotoxicity of peptides, differences in cell viability between the two cell lines can be used to evaluate the cell line selectivity and to assess potential anticancer potential of the peptides. NL20 cell line was grown in Ham's F12 medium and A549 cell line was grown in Roswell Park Memorial Institute medium. Both media were supplemented with fetal bovine serum to 10% (v/v) as growth medium or 2% (v/v) as maintenance medium in cell cytotoxicity testing. The assay was performed as described by Lee et al.[26]. NL20 cells was seeded overnight at 3 × 10^4 cells/well in 96-well cell culture-treated flat bottom microtiter plate and treated with serial dilutions of peptide at a final concentration of 1.95–250 μg/ml. PEN was tested from 0.03–4 μg/ml, the same range used to classify the susceptibility of pneumococcal isolates in this study. Test using A549 cells followed the same procedures with 1 × 10^4 cells/well. Plates were incubated at 37°C under 5% CO2 for 24, 48, and 72 hrs. Cell viability was detected by using CellTiter 96® AQueous Non-Radioactive Cell Proliferation assay (Promega, USA) and the colorimetric changes were read with Glomax multidetection system (Promega, USA) at OD 490 nm. Results were pooled from three independent experiments and expressed as mean ± SD. […] Imax was the percentage of cell viable treated with peptides/PEN at the maximum concentration as defined throughout this study (all peptides 250 μg/ml, PEN 4 μg/ml).

NL20 cell line = assay: as above; type: cell-based
Procedure: as §1

[2] = concentration reducing cell viability to 50%, 24 hrs, 2% FBS medium, OD 490 nm, mean ± SD of three independent experiments
[3] = concentration reducing cell viability to 50%, 48 hrs, 2% FBS medium, OD 490 nm, mean ± SD of three independent experiments
[4] = concentration reducing cell viability to 50%, 72 hrs, 2% FBS medium, OD 490 nm, mean ± SD of three independent experiments
[5] = percentage cell viability at the highest concentration (peptides 250 μg/ml; PEN 4 μg/ml), 24 hrs, mean ± SD
[6] = percentage cell viability at the highest concentration (peptides 250 μg/ml; PEN 4 μg/ml), 48 hrs, mean ± SD
[7] = percentage cell viability at the highest concentration (peptides 250 μg/ml; PEN 4 μg/ml), 72 hrs, mean ± SD
[8] = bound stated in text for 24, 48 and 72 hrs together

| Substance | MIC, PRSP [1] [µg/mL] | EP %, PRSP [1] | IC50, A549 cell line, 24 hrs (A549 cell line; 24 h) [µg/mL] | IC50, A549 cell line, 48 hrs (A549 cell line; 48 h) [µg/mL] | IC50, A549 cell line, 72 hrs (A549 cell line; 72 h) [µg/mL] | Imax, NL20 cell line, 24 hrs (NL20 cell line) [%] | Imax, NL20 cell line, 48 hrs (NL20 cell line) [%] | Imax, NL20 cell line, 72 hrs (NL20 cell line) [%] | IC50, NL20 cell line, 24 hrs (NL20 cell line; 24 h) [µg/mL] | IC50, NL20 cell line, 48 hrs (NL20 cell line; 48 h) [µg/mL] | IC50, NL20 cell line, 72 hrs (NL20 cell line; 72 h) [µg/mL] | IC50, A549 cell line, 24 hrs (A549 cell line; [2]) [µg/mL] | IC50, A549 cell line, 48 hrs (A549 cell line; [3]) [µg/mL] | IC50, A549 cell line, 72 hrs (A549 cell line; [4]) [µg/mL] | Imax, A549 cell line, 24 hrs (A549 cell line; [5]) [%] | Imax, A549 cell line, 48 hrs (A549 cell line; [6]) [%] | IC50, NL20 cell line, 24 hrs (NL20 cell line; [2]) [µg/mL] | IC50, NL20 cell line, 48 hrs (NL20 cell line; [3]) [µg/mL] | IC50, NL20 cell line, 72 hrs (NL20 cell line; [4]) [µg/mL] | Imax, NL20 cell line, 24 hrs (NL20 cell line; [5]) [%] | other results |
| --- | --- | --- | --- | --- | --- | --- | --- | --- | --- | --- | --- | --- | --- | --- | --- | --- | --- | --- | --- | --- | --- |
| GLFDIWAWWRWRR-NH2 [DM2] | 15.63 to 250 | (100.0) % | > 250 | 197.7 | 165.0 | 64.3 ± 7.0 | 53.3 ± 9.1 | 46.8 ± 4.0 | >250 | >250 | 241.5 ± 9.0 |  |  |  |  |  |  |  |  |  | difference between lowest and highest detectable MIC against S. pneumoniae: 32 fold |
| GLFDIWKKWRWRR-NH2 [DM4] | 31.3 to 125 | (100.0) % |  |  |  |  |  |  |  |  |  | 93.3 ± 5.1 | 103.0 ± 17.5 | 107.5 ± 16.3 | 8.5 ± 3.8 | 8.9 ± 1.4 | 160.2 ± 11.8 | 167.3 ± 5.9 | 205.0 ± 7.0 | 6.9 ± 6.8 | IC50 of NL20 cells higher than A549 cells by, 24 hrs (NL20 cell line; difference IC50 NL20 minus IC50 A549, 24 hrs): 66.9 µg/mL; IC50 of NL20 cells higher than A549 cells by, 48 hrs (NL20 cell line; difference IC50 NL20 minus IC50 A549, 48 hrs): 64.3 µg/mL; IC50 of NL20 cells higher than A549 cells by, 72 hrs (NL20 cell line; difference IC50 NL20 minus IC50 A549, 72 hrs): 97.5 µg/mL; Imax, NL20 cell line, 48 hrs (NL20 cell line; [6]): 5.9 ± 2.5%; Imax, NL20 cell line, 72 hrs (NL20 cell line; [7]): 30.2 ± 2.9% |
| GLFDKWAWWRWRR-NH2 [DM1] | 31.3 to 125 | (100.0) % |  |  |  |  |  |  |  |  |  | 215.3 ± 19.7 | 195.0 ± 25.2 | >250 | 38.6 ± 6.2 | 39.8 ± 7.7 | 221.8 ± 7.8 | 235.7 ± 12.9 | 242.2 ± 7.3 | 35.3 ± 6.6 | IC50 against A549 cell line, over all time points (A549 cell line; [8]): ≥ 195.0 µg/mL; Imax, A549 cell line, 72 hrs (A549 cell line; [7]): 66.2 ± 7.2%; IC50 against NL20 cell line, over all time points (NL20 cell line; [8]): > 220 µg/mL; Imax, NL20 cell line, 48 hrs (NL20 cell line; [6]): 42.2 ± 8.6%; Imax, NL20 cell line, 72 hrs (NL20 cell line; [7]): 45.9 ± 4.3% |
| GLFDIWKKLRWRR-NH2 [DM5] | 31.3 to 125 | (100.0) % | 97.0 ± 9.8 | 106.3 ± 15.7 | 101.7 ± 9.5 | 7.3 ± 2.4 | 8.3 ± 4.2 | 9.7 ± 5.4 | 179.2 ± 3.8 | 188.2 ± 4.9 | 191.7 ± 3.5 |  |  |  |  |  |  |  |  |  | IC50 of NL20 cells higher than A549 cells by, 24 hrs (NL20 cell line; 24 h): 82.2 µg/mL; IC50 of NL20 cells higher than A549 cells by, 48 hrs (NL20 cell line; 48 h): 81.9 µg/mL; IC50 of NL20 cells higher than A549 cells by, 72 hrs (NL20 cell line; 72 h): 90.0 µg/mL |
| GLFDIWKWWRWRR-NH2 [DM3] | 15.63 to 62.5 | (100.0) % | 56.0 ± 9.3 | 80.0 ± 1.7 | 96.2 ± 4.4 | 13.3 ± 2.1 | 24.0 ± 7.6 | 12.4 ± 4.5 | 68.5 ± 11.0 | 91.5 ± 7.6 | 112.2 ± 8.8 |  |  |  |  |  |  |  |  |  |  |
